Earlier results in patent publication US6576617B2, “Direct action anti-mycotic” (International Fiber Corporation, priority 1999, dated 2003).

Columns and labels:
[1] = test system: mold, yeast, and fungal growth; settings: agar medium
[2] = test system: mold, yeast, or fungus growth; settings: non-liquid foods for human consumption; conventional natamycin

C[C@@H]1C/C=C/C=C/C=C/C=C/[C@H](O[C@@H]2O[C@H](C)[C@@H](O)[C@H](N)[C@@H]2O)C[C@@H]2O[C@](O)(C[C@@H](O)C[C@H]3O[C@@H]3/C=C/C(=O)O1)C[C@H](O)[C@H]2C(=O)O [natamycin]
concentration with anti-mycotic activity [1]: ≥ 1 ppm | concentration necessary for effective mold, yeast, and fungus control [2]: greater than 5 ppm
